The compounds below were run against T1, recombinant MARK3 enzyme (Homo sapiens, UniProt P27448) (assay: MARK 3 Assay (HTRF, Cdc25C biotinylated peptide substrate)). Details: 10 μM ATP, 2 hours at 25° C.
T1 construct: purchased University of Dundee
Format: biochemical
Experimental: MARK3 activity was assayed in vitro using a Cdc25C biotinylated peptide substrate (Cell Signalling Technologies). The phosphopeptide product was quantitated using a Homogenous Time-Resolved Fluorescence (HTRF) assay system (Park et al., 1999, Anal. Biochem. 269:94-104). The reaction mixture contained 50 mM HEPES/Tris-HCl, pH 7.4; 10 mM NaCl, 5 mM MgCl2, 0.2 mM NaVO4, 5 mM β-glycerol phosphate, 0.1% Tween-20, 2 mM dithiothreitol, 0.1% BSA, 10 μM ATP, 1 μM peptide substrate, and 10 nM recombinant MARK3 enzyme (University of Dundee) in a final volume of 12 μl. The buffer additionally contained protease inhibitor cocktail (Roche EDTA-free, 1 tab per 50 ml). The kinase reaction was incubated for 2 hours at 25° C., and then terminated with 3 μl Stop/Detection Buffer (50 mM HEPES, pH 7.0, 16.6 mM EDTA, 0.5M KF, 0.1% Tween-20, 0.1% BSA, 2 μg/ml SLX^ent 665 (CISBIO), and 2 μg/ml Eu^3+ cryptate label antibody (CISBIO)). The reaction was allowed to equilibrate overnight at 0° C., and relative fluorescent units were read on an HTRF enabled plate reader (e.g. TECAN GENios Pro).
Inhibitor compounds were assayed in the reaction described above to determine compound IC50s. Aliquots of compound dissolved in DMSO were added to the reaction wells in a third-log dilution series covering a range of 1 nM to 10 μM. Relative phospho substrate formation, read as HTRF fluorescence units, was measured over the range of compound concentrations and a titration curve generated.

T1 sequence (P27448 whole entry, species assumed): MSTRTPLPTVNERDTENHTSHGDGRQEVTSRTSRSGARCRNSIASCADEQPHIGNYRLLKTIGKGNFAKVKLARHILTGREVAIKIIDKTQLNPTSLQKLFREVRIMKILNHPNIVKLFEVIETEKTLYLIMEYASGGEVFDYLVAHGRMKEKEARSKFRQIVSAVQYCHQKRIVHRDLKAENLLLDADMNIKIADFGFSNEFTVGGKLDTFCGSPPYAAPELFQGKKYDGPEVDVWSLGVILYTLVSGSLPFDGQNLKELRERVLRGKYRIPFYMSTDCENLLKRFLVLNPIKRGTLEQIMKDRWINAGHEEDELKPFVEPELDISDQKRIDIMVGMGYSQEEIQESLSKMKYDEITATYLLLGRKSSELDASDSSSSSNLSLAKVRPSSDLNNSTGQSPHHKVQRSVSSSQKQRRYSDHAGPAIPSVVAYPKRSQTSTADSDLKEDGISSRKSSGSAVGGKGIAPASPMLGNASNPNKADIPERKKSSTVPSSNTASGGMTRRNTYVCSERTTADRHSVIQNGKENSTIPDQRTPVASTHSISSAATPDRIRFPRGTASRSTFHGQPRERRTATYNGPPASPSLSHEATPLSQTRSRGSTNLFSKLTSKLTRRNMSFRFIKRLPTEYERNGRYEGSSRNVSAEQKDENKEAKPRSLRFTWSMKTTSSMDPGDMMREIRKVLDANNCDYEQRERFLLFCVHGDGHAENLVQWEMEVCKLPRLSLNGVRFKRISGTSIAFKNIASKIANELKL

Row | IC50 | Compound
1 | 127 nM | Cn1cc(-c2cnc3c(-c4ccc(C(=O)N[C@@H]5CCCC[C@@H]5N)cc4)cnn3c2)cn1 (stereo in doubt) [Example 219, N-[2-aminocyclohexyl]-4-[6-(1-methyl-1H-pyrazol-4-yl)pyrazolo[1,5-a]pyrimidin-3-yl]benzamide]
2 | 158 nM | O=C(NCC(F)(F)F)c1cc(-c2cnn3cc(-c4ccn(CCCN5CCC(F)(F)C5)c(=O)c4)cnc23)cs1 [Example 8, 4-(6-{1-[3-(3,3-difluoropyrrolidin-1-yl)propyl]-2-oxo-1,2-dihydropyridin-4-yl}pyrazolo[1,5-a]pyrimidin-3-yl)-N-(2,2,2-trifluoroethyl)thiophene-2-carboxamide]
3 | 4 nM | CC(C)[C@@H](NC(=O)c1cc(-c2cnn3cc(-c4ccc(NCC(C)(C)O)nc4)cnc23)cs1)C(F)(F)F [Example 49, 4-(6-{6-[(2-hydroxy-2-methylpropyl)amino]pyridin-3-yl}pyrazolo[1,5-a]pyrimidin-3-yl)-N-[(1R)-2-methyl-1-(trifluoromethyl)propyl]thiophene-2-carboxamide]
4 | 35 nM | O=C(NCC(F)(F)F)c1cc(-c2cnn3cc(-c4ccc(N5CCOCC5)nc4)cnc23)cs1 [Example 50, 4-[6-(6-morpholin-4-ylpyridin-3-yl)pyrazolo[1,5-a]pyrimidin-3-yl]-N-(2,2,2-trifluoroethyl)thiophene-2-carboxamide]
5 | 607 nM | O=C(NCc1nccs1)c1cc(-c2cnn3cc(-c4cccnc4)cnc23)cs1 [Example 184, 4-(6-pyridin-3-ylpyrazolo[1,5-a]pyrimidin-3-yl)-N-(1,3-thiazol-2-ylmethyl)thiophene-2-carboxamide]
6 | < 0.3 nM | Cc1sc(C(=O)N[C@@H]2[C@H](N)CCCC2(F)F)cc1-c1cnn2cc(-c3cnn(C)c3)cnc12 [Example 202, N-[(1R,6R)-6-amino-2,2-difluorocyclohexyl]-5-methyl-4-[6-(1-methyl-1H-pyrazol-4-yl)pyrazolo[1,5-a]pyrimidin-3-yl]thiophene-2-]
7 | 60 nM | Cn1cc(-c2cnc3c(-c4nc(C(=O)NCC(F)(F)F)sc4Cl)cnn3c2)cn1 [Example 205, 5-chloro-4-[6-(1-methyl-1H-pyrazol-4-yl)pyrazolo[1,5-a]pyrimidin-3-yl]-N-(2,2,2-trifluoroethyl)-1,3-thiazole-2-carboxamide]

Source: patent US8461162B2, “Pyrazolo[1,5-a]pyrimidine derivatives” (Merck Sharp & Dohme Corp., priority 2007, dated 2013)
